Data reported in PubChem BioAssay AID651807 (Broad Institute, 2012).
Values joined by “and” are separate entries in the source; they are usually repeats but may differ in a detail not shown here. Equal values may be shown once. Records with an inconclusive call do not appear. Active and inactive are the calls of the source.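 How the source made its calls: active means fitted curve rises past 40% activation at or below the top valid concentration, in every replicate test; inconclusive means replicate tests give mixed outcomes; inactive means all replicate tests inactive, or signal moves in the opposite direction.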

tested on: ARE-bla HepG2, beta-lactamase FRET ratio 460/530; assay: activators of Nrf2/ARE beta-lactamase reporter, dose response, Keap1-Nrf2 interaction inhibitor project, cell-based, ARE-bla HepG2, dry powder, set 4 (AID 651807); conditions: not given

| SMILES | AC40 |
| --- | --- |
| O=S(=O)(Nc1nc(NCC2CCCCC2)nc2ccccc12)c1ccccc1 | 32.2 µM |
| O=C(O)c1ccccc1C(=O)N1CCc2ccccc2C1CN1C(=O)c2ccccc2C1=O (stereo not drawn) | 41.3 µM |
| Cc1ccc(S(=O)(=O)Nc2cc(C(C(=O)OC(C)C)C(=O)C(F)(F)F)c(O)c3ccccc23)c(C)c1 (stereo not drawn) | 10.5 µM |
| Cc1cc(C)c(S(=O)(=O)Nc2cc(C(C(=O)OCc3ccccc3)C(=O)OCc3ccccc3)c(O)c3ccccc23)c(C)c1 | 32.7 µM |
| Cc1ccc(S(=O)(=O)NNc2nc(N3CC(O)CC3C(=O)O)nc3ccccc23)cc1 (stereo not drawn) | 13.5 µM |
| Cc1ccc(S(=O)(=O)Nc2cc(C(C(=O)OC(C)C)C(=O)C(F)(F)F)c(O)c3ccccc23)cc1 (stereo not drawn) | 9.52 µM |
| O=C(O)C1CCCCC1C(=O)N1CCc2ccccc2C1CN1C(=O)[C@H]2CCCC[C@H]2C1=O (stereo partly drawn) | 29.1 µM |
| O=C1c2ccccc2C(=O)N1C[C@@H]1c2ccccc2CCN1C(=O)OCc1ccccc1 | 38.2 µM |
| Cc1cc(C)c(S(=O)(=O)Nc2nc(C(C(=O)OC(C)C)C(=O)C(F)(F)F)nc3ccccc23)c(C)c1 (stereo not drawn) | 27.3 µM |
| Cc1ccc(S(=O)(=O)NNc2nc(C(C(=O)OC(C)C)C(=O)C(F)(F)F)nc3ccccc23)cc1 (stereo not drawn) | 33 µM |
| Cc1ccccc1S(=O)(=O)Nc1cc(C(C(=O)OC(C)C)C(=O)C(F)(F)F)c(O)c2ccccc12 (stereo not drawn) | 8.84 µM |
| COc1ccc(CCN=C2C=C(NS(=O)(=O)c3c(C)cc(C)cc3C)c3ccccc3C2=O)cc1 | 10.6 µM |
| Cc1cc(C)c(S(=O)(=O)Nc2cc(C(C(=O)OC(C)C)C(=O)C(F)(F)F)c(O)c3ccccc23)c(C)c1 (stereo not drawn) | 4.2 µM |
| CC(C)OC(=O)C(C(=O)C(F)(F)F)c1cc(NS(=O)(=O)c2ccccc2)c2ccccc2c1O (stereo not drawn) | 27.2 µM |
| O=C(NCCc1ccccc1)c1ccccc1C(=O)NC[C@@H]1c2ccccc2CCN1C(=O)C1CCCCC1C(=O)O (stereo partly drawn) | 17 µM |
| O=C(O)C1CCCCC1C(=O)N1CCc2ccccc2[C@H]1C(=O)NC12CC3CC(CC(C3)C1)C2 (stereo partly drawn) | 45.6 µM |
| NC(=O)c1ccccc1C(=O)NC[C@@H]1c2ccccc2CCN1C(=O)[C@@H]1CCCC[C@@H]1C(=O)O | 48.7 µM |

tested on: not listed separately; assay: as above; conditions: ARE-bla HepG2, beta-lactamase FRET ratio 460/530; at 16 µM (top of the series)

| SMILES | activation |
| --- | --- |
| O=C1c2ccccc2C(=O)N1CC1c2ccccc2CCN1C(=O)Cc1ccccc1 (stereo not drawn) | 14.7% (inactive) |

same assay, conditions: ARE-bla HepG2, beta-lactamase FRET ratio 460/530; at 68 µM (top of the series)

| SMILES | activation |
| --- | --- |
| O=C(O)[C@H]1CCCC[C@H]1C(=O)N1CCc2ccccc2C1CCN1C(=O)c2ccccc2C1=O (stereo partly drawn) | 17.3% (inactive) |
| O=C1c2ccccc2C(=O)N1C[C@H]1NCCc2ccccc21 | 43.8% (inactive) |
| COC(=O)[C@@H]1CCCC[C@@H]1C(=O)N1CCc2ccccc2[C@H]1CN1C(=O)c2ccccc2C1=O | 25.5% (inactive) |
| O=C(O)[C@@H]1CCCN1C(=O)N1CCc2ccccc2[C@H]1CN1C(=O)c2ccccc2C1=O | 27% (inactive) |
| O=C(O)C1CCCCC1C(=O)N1CCc2ccccc2[C@H]1C(=O)NCCc1ccccc1 (stereo partly drawn) | 2.65% (inactive) |
| O=C(O)C1CCCCC1C(=O)N1CCc2ccccc2C1CN1C(=O)c2ccccc2S1(=O)=O (stereo not drawn) | 35% (inactive) |
| O=C(O)C1CCCCC1C(=O)NCC1c2ccccc2CCN1C(=O)Cc1ccccc1 (stereo not drawn) | 20.2% (inactive) |
| O=C(O)[C@H]1CCCC[C@H]1C(=O)N1CCc2ccccc2[C@H]1CNc1nc(Cl)nc2ccccc12 | -4.32% (inactive) |
| Cc1ccc(S(=O)(=O)NC[C@@H]2c3ccccc3CCN2C(=O)[C@@H]2CCCC[C@@H]2C(=O)O)c(C)c1 | 29.9% (inactive) |
| O=C(NC[C@@H]1c2ccccc2CCN1C(=O)[C@@H]1CCCC[C@@H]1C(=O)O)OCC1c2ccccc2-c2ccccc21 | -31.2% (inactive) |
| O=C(NC[C@@H]1c2ccccc2CCN1C(=O)[C@@H]1CCCC[C@@H]1C(=O)O)c1ccccc1CO | 11% (inactive) |
| COC(=O)CNc1nc(NS(=O)(=O)c2c(C)cc(C)cc2C)c2ccccc2n1 | -4.15% (inactive) |
| Cc1cc(C)c(S(=O)(=O)Nc2nc(NCCO)nc3ccccc23)c(C)c1 | -10.1% (inactive) |
| COc1ccccc1CCNC(=O)[C@@H]1c2ccccc2CCN1C(=O)C1CCCCC1C(=O)O (stereo partly drawn) | -0.279% (inactive) |
| O=C(NC[C@@H]1c2ccccc2CCN1C(=O)[C@@H]1CCCC[C@@H]1C(=O)O)c1ccc(CN2CCOCC2)cc1 | 13.2% (inactive) |
| O=C(O)c1ccccc1C(=O)NC[C@@H]1c2ccccc2CCN1C(=O)[C@@H]1CCCC[C@@H]1C(=O)O | 23.5% (inactive) |
| O=C(O)C1CCCCC1C(=O)Nc1ccccc1CN1C(=O)c2ccccc2C1=O (stereo not drawn) | 6.93% (inactive) |
| O=C(O)C1CCCCC1C(=O)N1CCCCC1CN1C(=O)c2ccccc2C1=O (stereo not drawn) | 16.6% (inactive) |
| O=C1c2ccccc2C(=O)N1CC1=NCCc2ccccc21 | 9.14% (inactive) |
| O=C(NC[C@@H]1c2ccccc2CCN1C(=O)[C@@H]1CCCC[C@@H]1C(=O)O)c1ccccc1 | 6.57% (inactive) |
| O=C(O)CC(=O)N1CCc2ccccc2C1CN1C(=O)c2ccccc2C1=O (stereo not drawn) | 31.6% (inactive) |
| O=C(Cc1ccccc1)NC[C@@H]1c2ccccc2CCN1C(=O)[C@@H]1CCCC[C@@H]1C(=O)O | 6.95% (inactive) |
| Cc1ccc(S(=O)(=O)NC(=O)[C@@H]2c3ccccc3CCN2C(=O)[C@@H]2CCCC[C@@H]2C(=O)O)cc1 | 13.2% (inactive) and 28.7% (inactive) |
| Cc1cc(C)c(S(=O)(=O)Nc2nc(N(C)C)nc3ccccc23)c(C)c1 | -5.99% (inactive) |
| O=C(O)[C@H]1CCCC[C@H]1C(=O)NC(CN1C(=O)c2ccccc2C1=O)c1ccccc1 (stereo partly drawn) | 25.2% (inactive) |
